Target: T1, Ste2 receptor (Saccharomyces cerevisiae, UniProt D6VTK4)
T1 construct: The wild type strain and a cav1 mutant strain, transformed with the plasmid; endogenous in cells; host or cells: S. cerevisiae wild type and cav1 mutant strains carrying the FUS1-lacZ reporter plasmid
Assay: FUS1-lacZ β-galactosidase reporter assay, Ste2-mediated signaling
Type: cell-based, S. cerevisiae
Settings: 30 minutes incubation
Experimental: In order to determine whether the CAV1 gene is involved in Ste2-mediated signaling, the effects of a cav1 mutation on the levels of FUS1-lacZ induction in response to o-factor were studied as described below. Transformants were grown to the mid-exponential phase in the medium SC without uracil. 100 μt aliquots of cultures were incubated in 96-well plates in the presence of increasing concentrations of α-factor at 30° C. for 30 minutes prior to assaying β-galactosidase activity. 20 μl of 6X Z-buffer (0.6 M sodium phosphate, pH 7.0, 60 mM KCl, 6 mM MgCl2, 1.6% (v/v) β-mercaptoethanol) containing 10 mM chlorophenolred-β-D-galactoside (CPRG) and 2.5% Triton X-100 was added to each aliquot followed by incubation at room temperature for 30-60 min. The enzymatic reactions were stopped by adding […] of 1 M sodium carbonate and A575 values were determined using a Biomek Plate Reader (Beckman).
The wild type strain and a cav1 mutant strain, transformed with the plasmid Cpl 584 encoding the FUS 1-lacZ reporter gene, were incubated in the presence of α-factor for 30 minutes prior to the β-galactosidase assay. […] Furthermore, the rate of ligand-independent endocytosis of Ste2 receptor, and of Ste3 receptor, respectively, decreased by approximately two-fold in the cav1 mutant. Therefore, an increase in Ste2β mediated signaling may be attributed to the reduced internalization of yeast GPCRs.

T1 sequence (D6VTK4 whole entry): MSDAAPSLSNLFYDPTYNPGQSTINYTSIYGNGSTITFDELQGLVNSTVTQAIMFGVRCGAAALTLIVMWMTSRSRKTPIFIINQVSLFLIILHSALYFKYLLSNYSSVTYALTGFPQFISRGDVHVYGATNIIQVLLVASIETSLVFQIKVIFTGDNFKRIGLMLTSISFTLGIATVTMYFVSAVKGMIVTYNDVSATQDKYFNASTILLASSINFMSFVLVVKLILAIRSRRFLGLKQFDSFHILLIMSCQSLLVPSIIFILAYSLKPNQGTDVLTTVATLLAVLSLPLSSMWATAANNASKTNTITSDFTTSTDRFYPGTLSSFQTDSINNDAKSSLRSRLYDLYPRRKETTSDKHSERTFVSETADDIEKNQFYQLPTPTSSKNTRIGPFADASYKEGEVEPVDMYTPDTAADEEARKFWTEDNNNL

α-factor
higher levels of ligand-induced β-galactosidase activity in mutant strain compared with wild type strain (cav1 mutant versus wild type): 50-100% | estimated EC50 values for α-factor (wild type strain versus cav1 mutant strain): virtually identical
